From patent EP4671240A1, “SALT CONTAINING AROMATIC RING DERIVATIVE ANTAGONIST, PREPARATION METHOD THEREFOR, AND APPLICATION THEREOF” (Jiangsu Hansoh Pharmaceutical Group Co., Ltd., priority 2023, dated 2024)

Experiment: Liver microsomal metabolism stability assay (dog)
Assay type: in vitro ADME
Conditions: compound 1 µM; for half-life at 1 µM: dog liver microsomes 0.5 mg/mL, NADPH/UDPGA, read-out: Dog t1/2; for Dog Remaining rate: dog liver microsomes, 60 min
Description: The objective of this experiment was to detect the stability of the example compounds in liver microsomes of rats, dogs and humans.
Formulation of compound working solution: compound stock solution was added to phosphate buffer to a final concentration of 20 µM.
Dilution was performed with 100 mM phosphate buffer to a final concentration of 0.625 mg/mL.
NADPH (reduced nicotinamide adenine dinucleotide phosphate) and UDPGA (uridine diphosphate glucuronic acid) were weighed, and 100 mM phosphate buffer was added to a final concentration of 20 mM.
1 mg of Alamethicin was weighed, and 200 µL of DMSO was added to formulate a 5 mg/mL solution. Then dilution was performed with phosphate buffer to a final concentration of 50 µg/mL.
Stop solution: cold acetonitrile containing 100 ng/mL labetalol hydrochloride and 400 ng/mL tolbutamide as internal standards.
400 µL of formulated liver microsomes, 25 µL of compound working solution and 25 µL of Alamethicin were added in sequence to a 96-well plate, and the mixture was pre-incubated at 37°C for 10 min. Then 50 µL of formulated NADPH/UDPGA was added to start the reaction and the mixture was incubated at 37°C. The total volume of the reaction system was 500 µL. The final contents of each component are as follows:
• Instrument: Shimadzu LC-30 AD; • Chromatographic column: XBridge® C18 (50*4.6 mm, 5 µm particle size); • Mobile phase: A: 0.1% formic acid solution, B: methanol • Elution gradient: 0.2-1.6 min 5% A to 95% A, 3.0-3.1 min 95% A to 5% A • Run time: 4.0 min.
• Instrument: API5500 liquid chromatography-mass spectrometer, AB Sciex; • Ion source: electrospray ionization source (ESI); • Drying gas: N2, temperature 500°C; • Electrospray voltage: 5000 V; • Detection mode: positive ion detection; • Scan mode: Multiple Reaction Monitoring (MRM) mode.

SMILES	half-life at 1 µM	Dog Remaining rate
[2H]C([2H])(c1ccc(-c2ccccc2S(=O)(=O)Nc2noc(C)c2Cl)c(COCC)c1)N1C(=O)C2(CCCC2)N=C1CCCC [Example 2, 4'-((2-Butyl-4-oxo-1,3-diazaspiro[4.4]non-1-en-3-yl)methyl-d2)-N-(4-chloro-5-methylisoxazol-3-yl)-2'-(ethoxymethyl)-[1,1'-biphenyl]-2-sulfonamide]	29.9 min	24.6%
CCCCC1=NC2(CCCC2)C(=O)N1Cc1ccc(-c2ccccc2S(=O)(=O)Nc2noc(C)c2Cl)c(COCC)c1 [Example 8, 2-[4-[(2-Butyl-4-oxo-1,3-diazaspiro[4.4]non-1-en-3-yl)methyl]-2-(ethoxymethyl)phenyl]-N-(4-chloro-5-methyl-isoxazol-3-yl)benzenesulfonamide]	28.5 min	23.6%
